The source of these data is ChEMBL document CHEMBL1137187, “Isoindolinone ureas: a novel class of KDR kinase inhibitors” (Bioorg Med Chem Lett, 2004).

Each structure is given as a SMILES string.

For one assay, the target named is Vascular endothelial growth factor receptor 2 (Homo sapiens, UniProt P35968). Put plainly: Inhibition of Vascular endothelial growth factor receptor 2 (KDR).
Sequence of Vascular endothelial growth factor receptor 2 (P35968 whole entry): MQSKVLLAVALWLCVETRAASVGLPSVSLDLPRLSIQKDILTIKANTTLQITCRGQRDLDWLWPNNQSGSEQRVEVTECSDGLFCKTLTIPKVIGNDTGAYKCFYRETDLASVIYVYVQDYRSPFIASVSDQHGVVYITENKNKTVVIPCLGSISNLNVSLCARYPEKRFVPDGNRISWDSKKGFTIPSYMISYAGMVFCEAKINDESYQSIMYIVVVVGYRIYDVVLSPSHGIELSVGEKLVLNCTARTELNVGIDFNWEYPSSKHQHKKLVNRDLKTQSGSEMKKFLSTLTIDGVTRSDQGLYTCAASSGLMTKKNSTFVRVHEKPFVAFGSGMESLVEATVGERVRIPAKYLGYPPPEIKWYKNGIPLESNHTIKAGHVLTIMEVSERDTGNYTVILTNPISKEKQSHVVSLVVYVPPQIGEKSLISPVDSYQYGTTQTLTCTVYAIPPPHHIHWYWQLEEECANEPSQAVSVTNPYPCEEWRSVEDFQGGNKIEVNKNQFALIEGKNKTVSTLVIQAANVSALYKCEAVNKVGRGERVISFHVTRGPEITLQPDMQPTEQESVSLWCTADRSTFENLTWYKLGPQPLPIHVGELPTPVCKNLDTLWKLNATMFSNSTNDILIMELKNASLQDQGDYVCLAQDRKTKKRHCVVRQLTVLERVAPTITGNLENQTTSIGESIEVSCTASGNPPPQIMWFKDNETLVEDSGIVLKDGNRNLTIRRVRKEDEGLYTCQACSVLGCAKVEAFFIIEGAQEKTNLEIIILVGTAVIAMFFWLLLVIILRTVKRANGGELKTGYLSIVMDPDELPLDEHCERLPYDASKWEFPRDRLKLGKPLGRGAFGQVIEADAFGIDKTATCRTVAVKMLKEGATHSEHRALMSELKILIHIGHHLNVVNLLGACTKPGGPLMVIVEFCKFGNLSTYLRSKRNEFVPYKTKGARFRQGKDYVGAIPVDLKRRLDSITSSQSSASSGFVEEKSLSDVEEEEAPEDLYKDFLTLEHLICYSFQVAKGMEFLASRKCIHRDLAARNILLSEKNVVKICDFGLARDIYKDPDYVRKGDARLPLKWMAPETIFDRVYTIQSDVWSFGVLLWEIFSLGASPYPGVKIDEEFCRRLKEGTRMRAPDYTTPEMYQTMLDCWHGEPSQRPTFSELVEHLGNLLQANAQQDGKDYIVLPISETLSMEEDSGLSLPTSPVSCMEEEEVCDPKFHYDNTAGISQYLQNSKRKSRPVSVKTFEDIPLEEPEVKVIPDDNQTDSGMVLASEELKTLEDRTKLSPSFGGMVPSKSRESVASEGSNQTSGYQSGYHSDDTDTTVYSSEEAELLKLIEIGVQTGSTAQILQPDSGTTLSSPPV
Conditions: not given
The IC50 is the concentration that inhibits the measured activity by half. Higher therefore signals lower potency. As for `Cc1ccc(NC(=O)Nc2ccc(-c3cccc4c3CNC4=O)cc2)cc1`, 0.43 µM corresponded to half-maximal inhibition (IC50). This counts as sub-micromolar.

`O=C(Nc1ccc(-c2cccc3c2CNC3=O)cc1)Nc1cccc(Cl)c1` registered an IC50 of 0.046 µM.

In the case of `O=C(Nc1ccc(-c2cccc3c2CNC3=O)cc1)Nc1cccc(F)c1`, it took 0.52 µM to reach half-maximal inhibition (IC50). This IC50 lies about 11-fold higher than the previous one.

Consider `Cc1cccc(NC(=O)Nc2ccc(-c3ccc(NC(=O)c4ccccc4)c4c3CNC4=O)cc2)c1`, for which the IC50 turned out to be 0.47 µM.

In turn, `Cc1cccc(NC(=S)Nc2ccc(-c3cccc4c3CNC4=O)cc2)c1` displayed an IC50 of 10 µM. This IC50 is about 21-fold higher than that of the compound before.

`Cc1cccc(NC(=O)Nc2ccc(-c3cccc4c3CNC4=O)cc2C(F)(F)F)c1`: half-maximal inhibition (IC50) required 0.034 µM. Compared with the last compound, the IC50 is about 290-fold lower.

Take `Cc1cccc(CC(=O)Nc2ccc(-c3cccc4c3CNC4=O)cc2)c1`: the IC50 was over 50 µM.

With `Cc1cccc(NC(=O)Nc2ccc(-c3ccc(N)c4c3CNC4=O)cc2)c1`, half-maximal inhibition (IC50) was put at 0.014 µM.

Turning to `CC(=O)Nc1ccc(-c2ccc(NC(=O)Nc3cccc(C)c3)cc2)c2c1C(=O)NC2`, the IC50 is 0.064 µM.

Compound `N#Cc1cccc(NC(=O)Nc2ccc(-c3cccc4c3CNC4=O)cc2)c1` registered an IC50 of 0.37 µM. This IC50 is about 5.8-fold higher than that of the compound before.

The compound `O=C(Nc1ccc(-c2cccc3c2CNC3=O)cc1)Nc1cc(C(F)(F)F)ccc1F` had an IC50 of 0.023 µM. This IC50 lies about 16-fold lower than the previous one.

Turning to `COc1ccc(-c2ccc(NC(=O)Nc3cccc(C)c3)cc2)c2c1C(=O)NC2`, inhibition was half-maximal at 0.021 µM (IC50).

Regarding `Cc1cc(C)cc(NC(=O)Nc2ccc(-c3cccc4c3CNC4=O)cc2)c1`, the IC50 is 0.083 µM.

`Cc1cccc(NC(=O)Nc2ccc(-c3ccc(NC(=O)c4cccnc4)c4c3CNC4=O)cc2)c1` displayed a concentration for half-maximal inhibition (IC50) of 0.01 µM. Compared with the last compound, the IC50 is about 8.3-fold lower.

`CCc1cc(-c2cccc3c2CNC3=O)ccc1NC(=O)Nc1cccc(C)c1` yielded an IC50 of 6 µM.

Compound `Cc1cccc(NC(=O)Nc2ccc(-c3cccc4c3CNC4=O)cc2F)c1` had an IC50 of 0.044 µM.

Regarding `Cc1cccc(N(C)C(=O)Nc2ccc(-c3cccc4c3CNC4=O)cc2)c1`, the IC50 came out at 19 µM.

`CC(C)OCc1ccc2c(c1)c1c3c(c4c(c1n2CCCCC(=O)N(C)C)Cc1ccccc1-4)C(=O)NC3` yielded a 50% inhibitory concentration (IC50) of 0.018 µM.

`Cc1cccc(NC(=O)N(C)c2ccc(-c3cccc4c3CNC4=O)cc2)c1` had an IC50 of 1.1 µM.

On to `Cc1cccc(NC(=O)Nc2ccc(-c3cccc4c3CNC4=O)c(C(F)(F)F)c2)c1`, for which the IC50 was determined as 9 µM.

In turn, `Cc1cccc(NC(=O)Nc2ccc(-c3cccc4c3CNC4=O)c(F)c2)c1` came in with an IC50 of 0.052 µM. This IC50 is about 170-fold lower than that of the compound before.

Consider `Cc1cccc(NC(=O)Nc2c(C)cc(-c3cccc4c3CNC4=O)cc2C)c1`, for which the IC50 is over 50 µM.

The compound `Cc1cccc(NC(=O)Nc2ccc(-c3cccc4c3CNC4=O)c(C)c2)c1` showed an IC50 of 0.77 µM.

Compound `O=C1NCc2c1cccc2-c1ccc(NS(=O)(=O)c2ccccc2)cc1` gave an IC50 of over 50 µM.

Take `O=C(Nc1ccccc1)Nc1ccc(-c2cccc3c2CNC3=O)cc1`: half-maximal inhibition (IC50) required 1.8 µM. In other words, the single-digit micromolar range.

With `Cc1cccc(NC(=O)Nc2ccc(-c3cccc4c3CNC4=O)cc2Cl)c1`, the IC50 was found to be 0.03 µM.

`Cc1cccc(NC(=O)Nc2ccc(-c3cccc4c3CNC4=O)c(Cl)c2)c1`: the IC50 is 0.071 µM.

Compound `COc1cc(-c2nn([C@H]3CC[C@H](N4CCN(C)CC4)CC3)c3ncnc(N)c23)ccc1NC(=O)c1ccccc1` registered an IC50 of over 0.05 µM.

With `Cc1cccc(NC(=O)Cc2ccc(-c3cccc4c3CNC4=O)cc2)c1`, half-maximal inhibition (IC50) was put at 2.1 µM.

`Cc1cccc(NC(=O)Nc2ccc(-c3ccc(NC(=O)CN(C)C)c4c3CNC4=O)cc2)c1`: the half-inhibitory concentration (IC50) came out at 0.35 µM.

As to `COc1cccc(NC(=O)Nc2ccc(-c3cccc4c3CNC4=O)cc2)c1`, the IC50 came out at 0.57 µM.

Consider `Cc1ccccc1NC(=O)Nc1ccc(-c2cccc3c2CNC3=O)cc1`, for which the IC50 was 4.4 µM. This IC50 is about 7.7-fold higher than that of the compound before.

With `O=C(Nc1ccc(-c2cccc3c2CNC3=O)cc1)c1ccccc1`, the IC50 is over 50 µM.

`O=C(Nc1ccc(-c2cccc3c2CNC3=O)cc1)Nc1ccc(C(F)(F)F)cc1` returned a half-inhibitory concentration (IC50) of 0.161 µM. This lies in the sub-micromolar range.

Consider `COCCOc1ccc(-c2ccc(NC(=O)Nc3cccc(C)c3)cc2)c2c1C(=O)NC2`, for which the half-maximal inhibitory concentration (IC50) is 0.126 µM.

As to `O=C(Nc1ccc(-c2cccc3c2CNC3=O)cc1)Nc1cccc(C(F)(F)F)c1`, the IC50 is 0.007 µM.

Take `O=C(Nc1ccc(-c2cccc3c2CNC3=O)cc1)Nc1ccc2c(c1)CCC2`: half-maximal inhibition (IC50) required 0.039 µM.

Compound `CCc1cccc(NC(=O)Nc2ccc(-c3cccc4c3CNC4=O)cc2)c1` had an IC50 of 0.029 µM.

Another assay concerns NIH3T3. The assay can be described thus: inhibitory activity of the Compound against NIH3T3 Cell lines. In kind it is functional, cell-based. The note with it: Mus musculus.
`Cc1cccc(NC(=O)Nc2ccc(-c3cccc4c3CNC4=O)cc2C)c1` displayed an IC50 of 0.068 µM. This counts as double-digit nanomolar.

`O=C(Nc1ccc(-c2cccc3c2CNC3=O)cc1)Nc1cc(C(F)(F)F)ccc1F` had a concentration for half-maximal inhibition (IC50) of 0.15 µM.

In turn, `COc1ccc(-c2ccc(NC(=O)Nc3cccc(C)c3)cc2)c2c1C(=O)NC2` came in with an IC50 of 0.17 µM.

With `Cc1cccc(NC(=O)Nc2ccc(-c3ccc(NC(=O)c4cccnc4)c4c3CNC4=O)cc2)c1`, the IC50 turned out to be 0.011 µM.

On to `Cc1cccc(NC(=O)Nc2ccc(-c3cccc4c3CNC4=O)cc2Cl)c1`, for which inhibition was half-maximal at 0.099 µM (IC50). Against the preceding compound, the IC50 is about 9-fold higher.

Compound `Cc1cccc(NC(=O)Nc2ccc(-c3cccc4c3CNC4=O)cc2)c1` yielded an IC50 of 0.27 µM.

The compound `O=C(Nc1ccc(-c2cccc3c2CNC3=O)cc1)Nc1cccc(C(F)(F)F)c1` registered an IC50 of 0.065 µM.
